The subject of this test is colonic propulsion in morphine-treated mice. The test can be described thus: Mouse model of opioid-induced constipation: colonic propulsion (bead expulsion) after morphine. In kind it is in vivo. The procedure:
This study was conducted to analyze the effects of glycan therapeutics in a mouse model of opioid-induced constipation. In this model, normal mice are dosed with glycan or control for several days and then administered a dose of morphine sufficient to produce decreased gastrointestinal (GI) transit and colonic propulsion (Coates et al. 2006 Neurogastroenterol Motil 18:464-471). In humans, morphine and related opiate drugs are known to cause constipation. They act on neurons in the myenteric plexus as mu-opioid receptor agonists, leading to decreased GI motility and propulsion. The proportion of the US adult population who take opiates chronically (non-cancer patients), is roughly 4%. In an observational study of patients on opiates for chronic pain, 47% experienced constipation (Tuteja et al. […] Neurogastroenterol Motil 22: 424-430). There is evidence that chronic constipation can predispose individuals to benign GI neoplasms and colorectal cancer. […]
Several drug toxicities affecting GI motility (e.g. causing constipation or diarrhea) in cancer are also related to or associated with other immune imbalances and nutritional imbalances. […] Colonic propulsion was assessed as follows: thirty minutes post morphine dosing, a 3 mm glass bead was inserted at a depth of 2 cm into the distal colon through each mouse's anus. […]

With `C=CCN1CC[C@]23c4c5ccc(O)c4O[C@H]2C(=O)CC[C@@]3(O)[C@H]1C5` [naloxone], where the note is “1% in drinking water for 11 days (naloxone 30 minutes prior to morphine), morphine 3 mg/kg subcutaneously”, the “responders (reduction in expulsion of >25% of maximum expulsion time, 1350 seconds)” value was 6/8. In addition, for the setting “third analysis, responder versus non-responder animals, cutoff 1800 seconds”, the “effect in this mouse model of colonic propulsion” value is reported as “reversing the effects of morphine”.

These data come from patent publication US11883422B2, “Glycan therapeutic compositions and related methods thereof” (DSM Nutritional Products, LLC, priority 2015, dated 2024).
